The assay concerns the target T1, hCB1 (Homo sapiens, UniProt P21554).
T1 construct: made in house; host or cells: Sf9 insect cells (baculovirus), P2 membranes
The assay is described as follows: Agonist-induced GTP binding (GTPγ35S) assay at CB1, Example 8. It counts as biochemical. Particulars: read-out: IC50. In a few lines: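 Membranes from Sf9 cells co-expressing hCB1 and heterotrimeric G-protein (10 μg protein) in Tris pH 7.4 buffer with 5 μM GDP. Test compounds (10^−10–10^−5 M) competed against 1 nM CP55,940 with […] GTPγ35S, 60 min at room temperature. Filter-bound radioactivity by scintillation, expressed as percent above basal.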

Setting [1] is: IC50 at CB1, determined as described in Example 8.
[2] abbreviates: Table II, IC50 at CB1, GTP binding with 1 nM CP55,940.
[3] abbreviates: Table I, IC50 at CB1, GTP binding with 1 nM CP55,940.

SMILES strings stand for the structures. Where two headings read alike, the source gives them in different places.

As usually defined, the IC50 is the point on the concentration scale where inhibition reaches its midpoint.

T1 sequence (P21554 whole entry): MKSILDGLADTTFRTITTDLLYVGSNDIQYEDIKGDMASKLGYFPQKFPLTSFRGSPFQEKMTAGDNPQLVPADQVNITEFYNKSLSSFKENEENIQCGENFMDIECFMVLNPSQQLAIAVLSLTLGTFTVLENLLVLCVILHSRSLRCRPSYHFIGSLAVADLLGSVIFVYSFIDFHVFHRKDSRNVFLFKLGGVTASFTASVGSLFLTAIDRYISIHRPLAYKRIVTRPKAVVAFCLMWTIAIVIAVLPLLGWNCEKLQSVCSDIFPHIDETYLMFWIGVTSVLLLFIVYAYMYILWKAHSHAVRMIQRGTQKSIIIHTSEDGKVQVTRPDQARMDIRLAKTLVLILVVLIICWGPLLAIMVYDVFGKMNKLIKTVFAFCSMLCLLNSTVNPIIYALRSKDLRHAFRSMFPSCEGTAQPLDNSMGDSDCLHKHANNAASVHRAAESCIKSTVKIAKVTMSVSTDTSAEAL

Regarding `CC(=O)c1ccc(NC(=O)Nc2ccc(F)c(C)c2)cc1` [Compound 451, 1-(4-acetylphenyl)-3-(4-fluoro-3-methylphenyl)urea], the IC50 under setting [1] is less than 2 µM. On to `CCc1ccc(NC(=O)Nc2ccc(COC)cc2)cc1` [Compound 240, N-(4-ethylphenyl)-N′-[4-(methoxymethyl)phenyl]urea], for which the 50% inhibitory concentration (IC50) under setting [2] was less than 2 µM. `COC(=O)c1ccc(NC(=O)Nc2ccc(C(C)=O)cc2)cc1` [Compound 510, methyl 4-({[(4-acetylphenyl)amino]carbonyl}amino)benzoate]: the IC50 under setting [1] was less than 2 µM. With `CC(=O)c1ccc(NC(=O)Nc2cccc(Cl)c2)cc1` [Compound 191, N-(4-acetylphenyl)-N′-(3-chlorophenyl)urea], the IC50 under setting [2] is less than 2 µM. Take `CCCOc1ccc(NC(=O)Nc2ccc(C(C)=O)cc2)cc1` [Compound 275, N-(4-acetylphenyl)-N′-(4-propoxyphenyl)urea]: the IC50 under setting [2] is less than 2 µM. Consider `Cc1ccc(NC(=O)Nc2ccc(Cl)cc2)cc1C` [Compound 437, 1-(4-chlorophenyl)-3-(3,4-dimethylphenyl)urea], for which the IC50 under setting [1] was less than 2 µM.

With `O=C(Nc1ccc(OC(F)F)cc1)Nc1ccc(N2CCOCC2)c(Cl)c1` [Compound 81, N-(3-chloro-4-morpholin-4-ylphenyl)-N′-[4-(difluoromethoxy)phenyl]urea], the concentration for half-maximal inhibition (IC50) under setting [2] was less than 2 µM. Regarding `O=C(Nc1cccc(OC(F)F)c1)Nc1cccc(OC(F)(F)F)c1` [Compound 145, N-{3-(difluoromethoxy)phenyl]-N′-[3-(trifluoromethoxy)phenyl]urea], the IC50 under setting [2] was less than 2 µM.

As for `Cc1cccc(NC(=O)Nc2cccc(OC(C)C)c2)c1` [Compound 297, 1-(3-isopropoxyphenyl)-3-(3-methylphenyl)urea], under setting [1], the IC50 is less than 2 µM. Still for that read-out and setting: in the case of `Cc1ccc(NC(=O)Nc2cccc(F)c2)cc1F` [Compound 429, 1-(3-fluoro-4-methylphenyl)-3-(3-fluorophenyl)urea] it was less than 2 µM; in that of `CCOC(=O)c1ccc(NC(=O)Nc2ccc(O)cc2)cc1` [Compound 748, ethyl 4-({[(4-hydroxyphenyl)amino]carbonyl}amino)benzoate], less than 2 µM. In the case of `O=C(Nc1ccccc1)Nc1ccc2c(c1)CCC2` [Compound 316, 1-(2,3-dihydro-1H-inden-5-yl)-3-phenylurea], the IC50 under setting [1] is less than 2 µM.

Regarding `O=C(Nc1ccc(OC(F)F)cc1)Nc1ccc2c(c1)OC(=O)C2` [Compound 135, N-[4-(difluoromethoxy)phenyl]-N′-(2-oxo-2,3-dihydro-1-benzofuran-6-yl)urea], the IC50 under setting [2] is less than 2 µM. On to `CCCOc1ccc(NC(=O)Nc2cccc(C)c2)cc1` [Compound 159, N-(3-methylphenyl)-N′-(4-propoxyphenyl)urea], for which, under setting [2], the IC50 is less than 2 µM. In the case of `Cc1ccc(NC(=O)Nc2cccc(F)c2)cc1Cl` [Compound 433, 1-(3-chloro-4-methylphenyl)-3-(3-fluorophenyl)urea], the IC50 under setting [1] is less than 2 µM. As for `O=C(Nc1ccc(F)cc1)Nc1ccc(OC(F)F)cc1` [Compound 221, N-[4-(difluoromethoxy)phenyl]-N′-(4-fluorophenyl)urea], the IC50 under setting [2] is less than 2 µM. As for `Cc1cc(C)cc(NC(=O)Nc2cccc(OC(C)C)c2)c1` [Compound 707, 1-(3,5-dimethylphenyl)-3-(3-isopropoxyphenyl)urea], under setting [1], the IC50 was less than 2 µM.

For the compound `Cc1ccc(NC(=O)Nc2ccc(OCC#N)cc2)cc1` [Compound 465, 1-[4-(cyanomethoxy)phenyl]-3-(4-methylphenyl)urea], the IC50 under setting [1] is less than 2 µM. Consider `COc1cc(NC(=O)Nc2ccc(OC(F)F)cc2)ccc1OC(F)F` [Compound 6, N-[4-(difluoromethoxy)-3-methoxyphenyl]-N′-[4-(difluoromethoxy)phenyl]urea], for which the IC50 under setting [3] was less than 2 µM.

As for `CC(C)Oc1cccc(NC(=O)Nc2cccc(C#N)c2)c1` [Compound 418, 1-(3-cyanophenyl)-3-(3-isopropoxyphenyl)urea], the IC50 under setting [1] is less than 2 µM.

On to `CCc1ccc(NC(=O)Nc2ccc(CC#N)cc2)cc1` [Compound 483, 1-[4-(cyanomethyl)phenyl]-3-(4-ethylphenyl)urea], for which the IC50 under setting [1] was less than 2 µM.

As to `CCCc1ccc(NC(=O)Nc2ccc(CC)cc2)cc1` [Compound 20, N-(4-ethylphenyl)-N′-(4-propylphenyl)urea], the IC50 under setting [3] was less than 2 µM.

Turning to `CCCc1ccc(NC(=O)Nc2ccc([N+](=O)[O-])cc2)cc1` [Compound 529, 1-(4-nitrophenyl)-3-(4-propylphenyl)urea], under setting [1], the IC50 is less than 2 µM. Turning to `CCc1ccc(NC(=O)Nc2ccc(C(C)C)cc2)cc1` [Compound 332, 1-(4-ethylphenyl)-3-(4-isopropylphenyl)urea], the half-inhibitory concentration (IC50) under setting [1] was less than 2 µM.

As to `O=C(Nc1ccc(OC(F)F)cc1)Nc1cccc(OCCO)c1` [Compound 14, N-[4-(difluoromethoxy)phenyl]-N′-[3-(2-hydroxyethoxy)phenyl]urea], the IC50 under setting [3] is less than 2 µM. On to `Cc1ccc(NC(=O)Nc2cccc(F)c2)cc1` [Compound 173, N-(3-fluorophenyl)-N′-(4-methylphenyl)urea], for which, under setting [2], the IC50 was less than 2 µM. In the case of `O=C(Nc1ccc(OC(F)F)cc1)Nc1ccccc1Br` [Compound 605, 1-(2-bromophenyl)-3-[4-(difluoromethoxy)phenyl]urea], the IC50 under setting [1] was less than 2 µM. For `Cc1ccc(NC(=O)Nc2ccc(N3CCCCC3)cc2)cc1` [Compound 169, N-(4-methylphenyl)-N′-(4-piperidin-1-ylphenyl)urea], the IC50 under setting [2] is less than 2 µM. With `CCC(=O)c1ccc(NC(=O)Nc2cccc(CC)c2)cc1` [Compound 491, 1-(3-ethylphenyl)-3-(4-propionylphenyl)urea], the 50% inhibitory concentration (IC50) under setting [1] is less than 2 µM. Consider `O=C(Nc1ccccc1)Nc1cccc(OC(F)F)c1` [Compound 225, N-[3-(difluoromethoxy)phenyl]-N′-phenylurea], for which, under setting [2], the IC50 is less than 2 µM. For the compound `CCc1ccc(NC(=O)Nc2ccc(Cl)cc2)cc1` [Compound 25, N-(4-chlorophenyl)-N′-(4-ethylphenyl)urea], the IC50 under setting [3] is less than 2 µM. In the case of `CCC(=O)c1ccc(NC(=O)Nc2cccc(C)c2)cc1` [Compound 468, 1-(3-methylphenyl)-3-(4-propionylphenyl)urea], the IC50 under setting [1] was less than 2 µM.

Regarding `CC(=O)c1ccc(NC(=O)Nc2ccc(C(C)C)cc2)cc1` [Compound 196, N-(4-acetylphenyl)-N′-(4-isopropylphenyl)urea], the IC50 under setting [2] was less than 2 µM.

Regarding `Cc1ccc(NC(=O)Nc2ccc(OC(F)(F)F)cc2)cc1F` [Compound 607, 1-(3-fluoro-4-methylphenyl)-3-[4-(trifluoromethoxy)phenyl]urea], the IC50 under setting [1] is less than 2 µM. For `Cc1cccc(NC(=O)Nc2ccc(OC(C)C)cc2)c1` [Compound 365, 1-(4-isopropoxyphenyl)-3-(3-methylphenyl)urea], under setting [1], the IC50 was less than 2 µM. Turning to `CCc1ccc(NC(=O)Nc2ccc(C(=O)OC)cc2)cc1` [Compound 495, methyl 4-({[(4-ethylphenyl)amino]carbonyl}amino)benzoate], the IC50 under setting [1] was less than 2 µM. As to `CCOC(=O)c1ccc(NC(=O)Nc2ccc(Cl)cc2)cc1` [Compound 500, ethyl 4-({[(4-chlorophenyl)amino]carbonyl}amino)benzoate], under setting [1], the IC50 is less than 2 µM. The same measure, in the same setting: under `O=C(Nc1cccc(F)c1)Nc1ccc2c(c1)CCC2` [Compound 431, 1-(2,3-dihydro-1H-inden-5-yl)-3-(3-fluorophenyl)urea] stands less than 2 µM.

In the case of `CCCOc1ccc(NC(=O)Nc2cc(C)cc(C)c2)cc1` [Compound 706, 1-(3,5-dimethylphenyl)-3-(4-propoxyphenyl)urea], the half-maximal inhibitory concentration (IC50) under setting [1] was less than 2 µM.

For `Cc1ccc(NC(=O)Nc2cccc(C#N)c2)cc1` [Compound 186, N-(3-cyanophenyl)-N′-(4-methylphenyl)urea], the IC50 under setting [2] is less than 2 µM. Turning to `CCc1ccc(NC(=O)Nc2ccc(OC(C)C)cc2)cc1` [Compound 250, N-(4-ethylphenyl)-N′-(4-isopropoxyphenyl)urea], the IC50 under setting [2] was less than 2 µM. For the compound `COc1cccc(NC(=O)Nc2ccc([N+](=O)[O-])cc2)c1` [Compound 556, 1-(3-methoxyphenyl)-3-(4-nitrophenyl)urea], under setting [1], the IC50 was less than 2 µM. Still for that read-out and setting: in the case of `CC(=O)c1ccc(NC(=O)Nc2ccc(C)cc2)cc1` [Compound 338, 1-(4-acetylphenyl)-3-(4-methylphenyl)urea] it was less than 2 µM; in that of `Cn1nnnc1-c1cccc(NC(=O)Nc2ccc(Cn3ccnn3)cc2)c1` [Compound 794, N-[3-(1-methyl-1H-tetrazol-5-yl)phenyl]-N′-[4-(1H-1,2,3-triazol-1-ylmethyl)phenyl]urea], less than 2 µM. For the compound `Cc1cc(-c2cccc(NC(=O)Nc3ccc(OC(F)F)cc3)c2)cc(C)n1` [Compound 120, N-[4-(difluoromethoxy)phenyl]-N′-[3-(2,6-dimethylpyridin-4-yl)phenyl]urea], the IC50 under setting [2] was less than 2 µM. As to `CCc1ccc(NC(=O)Nc2cccc(C(C)=O)c2)cc1` [Compound 56, N-(3-acetylphenyl)-N′-(4-ethylphenyl)urea], the IC50 under setting [3] is less than 2 µM.

With `CCc1ccc(NC(=O)Nc2ccc(C)cc2)cc1` [Compound 42, N-(4-ethylphenyl)-N′-(4-methylphenyl)urea], the IC50 under setting [3] is less than 2 µM. With `CCCc1ccc(NC(=O)Nc2ccc(OC)cc2)cc1` [Compound 525, 1-(4-methoxyphenyl)-3-(4-propylphenyl)urea], under setting [1], the IC50 is less than 2 µM.

Take `CCc1ccc(NC(=O)Nc2ccccc2)cc1` [Compound 35, N-(4-ethylphenyl)-N′-phenylurea]: under setting [3], the IC50 is less than 2 µM. Take `CCc1ccc(NC(=O)Nc2cccc(COC)c2)cc1` [Compound 391, 1-(4-ethylphenyl)-3-[3-(methoxymethyl)phenyl]urea]: the IC50 under setting [1] was less than 2 µM.

Consider `CCc1cccc(NC(=O)Nc2ccc(C(C)=O)cc2)c1` [Compound 341, 1-(4-acetylphenyl)-3-(3-ethylphenyl)urea], for which the half-maximal inhibitory concentration (IC50) under setting [1] was less than 2 µM.

(Values after patent US20090239841A1, “Diaryl Ureas as CB1 Antagonists” (priority 2004, published 2009).)
